Common to all, as to experiment: NCI tumour cell line growth inhibition, 48 h
Assay [1] relates to CAKI-1 renal.
For assay [2], the system named is M14 melanoma.
Assay [3] concerns A498 renal.
For assay [4], the system named is HS 578T breast.
The subject of assay [5] is HT29 colon.
Assay [6] concerns DU-145 prostate.
Assay [7] concerns HCT-116 colon.
In assay [8] the test system is PC-3 prostate.
In assay [9] the test system is A549 NSCLC.
The test system of assay [10] is TK-10 renal.

“And” between values parts separate entries of the source, which are not always exact repeats. Equal values may be shown once.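 Five compound concentrations were applied to cells in 96-well plates for 48 hours; endpoints were derived by simple linear interpolation of the resulting dose-response curve. Here, GI50 denotes the concentration required for 50% inhibition of growth. TGI marks complete inhibition of growth.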

For the molecule `CC(=O)O[C@H]1CC[C@]2(C)C3C(=O)C[C@]4(C)[C@@H](C(C)CCC(=O)O)CC[C@@]4(C)[C@@H]3CC[C@H]2C1(C)C` (stereo partly drawn), the GI50 in [1] was 20.8 µM; in assay [2], 20.5 µM; in assay [3], 22.2 µM; in assay [4], 11.9 µM; in assay [5], 18.6 µM; in assay [6], 19.7 µM. Moreover, the GI50 was 9.37 µM in [7], 18.3 µM in assay [8], 15.6 µM in [9] and 21.8 µM in assay [10]. Further, the TGI in assay [1] is 46.1 µM; in assay [2], greater than 50 µM; in [3], greater than 50 µM; in assay [4], 39.5 µM; in [5], greater than 50 µM; in [6], greater than 50 µM. Besides, the TGI in assay [7] is 20.5 µM; in assay [8], greater than 50 µM; in assay [9] it was greater than 50 µM; in [10], greater than 50 µM.

Turning to `CC1(C)CN(CCNc2nccc(-c3c(-c4cccc(O)c4)nc4sccn34)n2)S(=O)(=O)N1`, the GI50 was 6.12 µM in assay [1]; 0.317 µM in assay [2]; 1.55 µM in assay [3]; 4.72 µM in assay [4]; 3.2 µM in [5]; 7.48 µM in [6]. Moreover, the GI50 was 5.05 µM in assay [7], 17.1 µM in [8], 14.2 µM in assay [9] and greater than 22.6 µM in assay [10]. The TGI in assay [1] is greater than 27.2 µM; in assay [2] it was greater than 26.4 µM; in [3], 19.7 µM; in [4], 25 µM; in assay [5] it was greater than 33.2 µM; in [6], greater than 33.2 µM. Further, the TGI in assay [7], in assay [8], in [9] and in [10] was greater than 33.2 µM in each case.

Take `CC1(C)CC[C@]2(CO)CC[C@]3(C)C(=CC[C@@H]4[C@@]5(C)CCNCC(C)(C)[C@@H]5CC[C@]43C)[C@@H]2C1`: the GI50 in assay [1] is 3.64 µM; in assay [2], 2.05 µM; in assay [3], 12.5 µM; in assay [4], 4.88 µM; in [5], 2.69 µM; in [6] it was 6.93 µM. Moreover, the GI50 in [7] was 3.13 µM; in assay [8] it was 4.32 µM; in [9], 8.23 µM; in assay [10] it was 10.3 µM. Moreover, the TGI in [1] amounted to 11.9 µM; in [2], 4.14 µM; in assay [3], 25.1 µM; in assay [4], 22.1 µM; in assay [5] it was 9.4 µM; in assay [6], 21 µM. For the same molecule, the TGI in assay [7] is 12.4 µM; in [8], 18.3 µM; in assay [9], 22.7 µM; in assay [10], 22.6 µM.

As for `COc1ccc2c(c1)C(=O)c1c-2n(CCCCl)c(=O)c2cc(N)ccc12`, the GI50 in assay [1] was greater than 100 µM; in [2], greater than 100 µM; in assay [3] it was greater than 100 µM; in assay [4] it was greater than 96.3 µM; in assay [5] it was greater than 100 µM; in assay [6], 56.9 µM. Moreover, the GI50 is greater than 57.9 µM in assay [7], greater than 72.8 µM in [8], greater than 100 µM in assay [9] and greater than 82.5 µM in assay [10]. The TGI in [1], in assay [2], in assay [3], in assay [4], in [5] and in assay [6] was greater than 100 µM in each case. Besides, the TGI in assay [7], in assay [8], in assay [9] and in assay [10] was greater than 100 µM throughout.

With `O=C(c1ccc(Nc2nccc(NCCCCNc3ccnc4cc(Cl)ccc34)n2)cc1)N1CCCCC1`, the GI50 in assay [1] is 2.77 µM; in [2] it was 1.71 µM; in [3], 0.674 µM; in assay [4], 1.8 µM; in assay [5], 1.31 µM; in assay [6], 3.53 µM. The GI50 was 1.01 µM in [7], 0.955 µM in assay [8], 1.3 µM in assay [9] and 2.16 µM in [10]. Also, the TGI in assay [1] is 8.84 µM; in assay [2] it was 3.43 µM; in assay [3] it was 6.22 µM; in assay [4], 4.62 µM; in assay [5] it was 6.57 µM; in assay [6], 14.3 µM. For the same molecule, the TGI in assay [7] was determined as 2.42 µM; in assay [8], 7.89 µM; in assay [9], 11.9 µM; in assay [10] it was 4.83 µM.

As for `O=c1[nH]c2ccccc2n1C1CCN(CCOc2ccccc2)CC1`, the GI50 in assay [1] was 14.9 µM; in [2], 25.4 µM; in assay [3], 17.1 µM; in assay [4], 20.8 µM; in assay [5], 35.8 µM; in assay [6], 15.8 µM. Also, the GI50 is 10.7 µM in [7], 10.7 µM in assay [8], 58.3 µM in assay [9] and 86.2 µM in assay [10]. Further, the TGI in [1] was 52.7 µM; in assay [2], greater than 100 µM; in assay [3], 99.6 µM; in assay [4], 77.6 µM; in [5], greater than 100 µM; in assay [6], greater than 100 µM. For the same molecule, the TGI in [7], in assay [8], in assay [9] and in assay [10] was greater than 100 µM in each case.

In the case of `COc1cc(/C=C/c2ccnc3ccccc23)cc(OC)c1OC`, the GI50 in assay [1] was 1.89 µM; in assay [2] it was 2.43 µM; in assay [3], 1.6 µM; in [4] it was 1.74 µM; in [5] it was 1.72 µM; in assay [6], 3.06 µM. The GI50 in assay [7] was 2.88 µM; in [8] it was 3.81 µM; in assay [9], 3.39 µM. Moreover, the TGI was 20.8 µM and 26.8 µM in assay [1]; 91 µM and 13.8 µM in assay [2]; 8.91 µM and 5.87 µM in [3]; 20.9 µM and 7.18 µM in assay [4]; 30.3 µM and 20.7 µM in assay [6]; 12.1 µM and 18.5 µM in assay [7]. Moreover, the TGI in assay [8] was 94.1 µM and > 100 µM; in assay [9], 31.1 µM and > 100 µM; in assay [10], 30.6 µM and > 100 µM.

Source of the values: PubChem BioAssay (NCI).
